Experiments:
[1] = target: T1, Aβ1-40 (Homo sapiens, UniProt P05067); assay: 125I-VEGF competition binding to immobilized Aβ peptide in microtiter wells; details: read-out: dissociation constant (KD) of VEGF for Aβ; immobilized Aβ1-40; 50 pM 125I-VEGF with increasing unlabeled VEGF; KD=IC50-[125I-VEGF]
T1 construct: Aβ1-40, Aβ1-42, and Aβ40-1 (BACHEM, Bubendorf, Switzerland) were immobilized on a CM5 sensor chip; purchased BACHEM

[2] = target: T1, Aβ1-40; assay: Surface plasmon resonance binding to Aβ peptide on CM5 sensor chip; details: 100 nM protein; versus alpha2-macroglobulin, alpha1-antichymotrypsin, serum amyloid P component, apolipoprotein E4
Procedure: (§1) Aβ1-40, Aβ1-42, and Aβ40-1 (BACHEM, Bubendorf, Switzerland) were immobilized on a CM5 sensor chip (BIAcore AB, Uppsala, Sweden) with an amine coupling kit. Alpha2-macroglobulin, alpha1-antichymotrypsin, serum amyloid P component, apolipoprotein E4, and VEGF165 (100 nM) were allowed to bind to the immobilized Aβ at a flow rate of 10 μl/min and sensorgrams were recorded in real time.

[3] = target: T2, Aβ1-42 (Homo sapiens, UniProt P05067); assay: as above; details: 100 nM protein; versus alpha2-macroglobulin, alpha1-antichymotrypsin, serum amyloid P component, apolipoprotein E4
T2 construct: Aβ1-40, Aβ1-42, and Aβ40-1 (BACHEM, Bubendorf, Switzerland) were immobilized on a CM5 sensor chip; purchased BACHEM
Procedure: as §1

[4] = tested on: Aβ40-1
Procedure: as §1

[5] = target: T1, Aβ1-40; assay: Co-aggregation assay of 125I-VEGF165 with Aβ, radioactivity in pellet; format: binding; details: 100 μM Aβ1-40, 1 nM 125I-VEGF165, 37° C., 2 days; approximately 60% of Aβ alone in pellet
Procedure: (§2) The aggregation of Aβ1-40 was determined as described with some modifications (Chang et al., Brain Res Brain Res Protoc 2000;6(1-2):6-12). After a two day incubation of Aβ1-40 (100 μM) with FITC-conjugated Aβ1-40 (1 μM) in 50 mM MES, pH 5.8, at 37° C., the mixture was centrifuged, and fluorescence in the pellet was measured. […] Then the mixtures were centrifuged and radioactivity in pellet was determined in a gamma-counter. […] The radioactivity in the pellet was determined.

[6] = tested on: Aβ40-1; details: 100 μM Aβ40-1, 1 nM 125I-VEGF165, 37° C., 2 days; P=0.0076
Procedure: as §2

[7] = target: T1, Aβ1-40; assay: Effect of VEGF on the aggregation rate of Aβ, FITC-Aβ1-40 fluorescence in pellet; format: biochemical; details: VEGF 1 μM; 50 μM and 100 μM Aβ1-40; 37° C.
[8] = target: T3, pre-aggregated Aβ1-40 (Homo sapiens, UniProt P05067); assay: Binding of 125I-VEGF to pre-aggregated Aβ, immediate centrifugation; details: 50 μM Aβ preincubated for 2 days, 1 nM 125I-VEGF, immediately centrifuged
T3 construct: Aβ1-40, Aβ1-42, and Aβ40-1 (BACHEM, Bubendorf, Switzerland) were immobilized on a CM5 sensor chip; purchased BACHEM
Procedure: as §2

[9] = target: T4, Aβ/VEGF co-aggregate (Homo sapiens, UniProt P05067); assay: Dissociation assay of VEGF from Aβ/VEGF co-aggregate; format: binding; details: after 3 days; 50 mM MES, pH 5.8
T4 construct: purchased BACHEM (Aβ peptides); Amersham Pharmacia Biotech (125I-VEGF)
Procedure: The radioactivity in the supernate was determined. […] The mixtures were separated by SDS-PAGE (10%) and autoradiographed.

[10] = target: T2, Aβ1-42; assay: Thioflavin T assay of Aβ aggregation; format: biochemical; details: 50 μM Aβ1-42, 37° C., 24 hours; VEGF or GST-HBD at various concentrations
Procedure: 10 μM of thioflavin T was added to the mixture and sufficiently mixed. Then, the fluorescence of the mixture was measured at Ex=444 nm and Em=485 nm, and then, compared with that of control of Aβ incubated alone, to determine the affection on aggregation of Aβ.
50 μM Aβ was incubated at 37° C. for 24 hours together with triamterene of 0 μM, 4 μM, 20 μM or 100 μM, respectively, to generate aggregation of Aβ. Then, the degree of aggregation was determined by the thioflavin T assay as illustrated in Example 11.

[11] = tested on: PC12 cells; assay: DCF fluorescence, generation of reactive oxygen species by Aβ; format: cell-based; details: PC12 cells 3 hours
Procedure: 5 μM VEGF165 or 5 μM GST-HBD and 5 μM Aβ1-42 were mixed and incubated at 37° C. for 24 hours. The mixture was added to PC12 cells (6×10^4, cells/well, kindly provided by Dr. Pann-Ghill Suh), and then left for reaction at 37° C. for 3 hours. Then, 100 μM of DCF solution was added to the resulted mixture, reacted for 30 minutes, and then washed with PBS (phosphate-buffered saline). The obtained cells were observed through a fluorescent microscope, and DCF fluorescence was measured, to calculate the level of generation of the reactive oxygen species.

[12] = target: T5, immobilized Aβ aggregate (Homo sapiens, UniProt P05067); assay: In vitro VEGF trapping on immobilized Aβ aggregate; format: binding; details: 50 μM Aβ aggregated 24 hours and dried on well; radiolabeled VEGF; no inhibitor
T5 construct: Aβ (Aβ) is the major component of senile plaques and is derived from the amyloid precursor protein by proteolytic cleavage
Procedure: The system is simulating VEGF trapping on Aβ plaques under in vitro condition. In the in vitro assay system, 50 μM of Aβ was aggregated at 37° C. for 24 hours and immobilized on the bottom of a well by drying under air for overnight, and then, VEGF labeled with a radioisotope was added to the well, to form VEGF-Aβ binding. After removing unbound VEGF, bound VEGF was determined by measuring radioactivity. […] If certain chemical has inhibitory activity against VEGF-Aβ binding, then the chemical will decrease the amount of VEGF trapped on immobilized Aβ aggregate.

[13] = target: T6, Aβ (Homo sapiens, UniProt P05067); assay: Binding of growth factors to Aβ; details: among NGF, bFGF, PDGF, VEGF and midkine
T6 construct: Aβ (Aβ) is the major component of senile plaques and is derived from the amyloid precursor protein by proteolytic cleavage

[14] = Keyt et al., J. Biol. Chem. 1996; cited from earlier work

Sequence of Aβ40-1 (as listed by the source): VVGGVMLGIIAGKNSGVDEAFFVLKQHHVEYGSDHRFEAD

## VEGF
[1]
  Kd: ~0.05 nM
[2]
  binding to immobilized Aβ1-40 (surface plasmon resonance): much more strongly than other molecules that are known to bind to Aβs
[3]
  binding to immobilized Aβ1-42 (surface plasmon resonance): much more strongly than other molecules that are known to bind to Aβs
[4]
  binding to Aβ40-1 (reverse peptide): did not bind
[5]
  proportion of 125I-VEGF in the pellet after incubation with Aβ1-40: About the same proportion
[6]
  sedimentation of VEGF in presence of Aβ40-1: did not cause extensive sedimentation of VEGF
[7]
  influence of VEGF on the aggregation of Aβ1-40 (time course): no significant influence
[8]
  binding of VEGF to pre-aggregated Aβ (pelleted by centrifugation): bound to pre-aggregated Aβ
[9]
  VEGF released from the Aβ/VEGF complex: less than 1.5%
[10]
  inhibition of aggregation of Aβ (thioflavin T): inhibit aggregation of Aβ depending on the concentration
[11]; 5 μM VEGF165 or 5 μM GST-HBD alone
  generation of the reactive oxygen species, treatment alone: no effect on the generation of the reactive oxygen species
[11]; 5 μM VEGF165 or 5 μM GST-HBD with 5 μM Aβ1-42
  generation of the reactive oxygen species by Aβ, treatment together with Aβ: inhibitory effect on the generation of the reactive oxygen species by Aβ
[12]
  VEGF trapping into Aβ, share of VEGF added: about 70%
[13]
  binding of growth factor to Aβ: bound to A
[14]
  bioactivity relative to VEGF121: 100 fold

Source: patent US7795213B2 (POSCO, priority 2002, dated 2010)
